The source of these data is ChEMBL document CHEMBL1155002, “Synthesis of phosphatidylated-monoterpene alcohols catalyzed by phospholipase D and their antiproliferative effects on human cancer cells” (2008).

In assay [1] the test system is PC-3. The assay can be described thus: Antiproliferative activity against human PC3 cells assessed as cell viability at 100 uM after 72 hrs by WST-1 assay. Format: functional, cell-based. A general note: Formazan colour is commonly taken as a measure of viable cells.
Assay [2] concerns PC-3. The assay can be described thus: Antiproliferative activity against human PC3 cells assessed as reduction of cell viability at 400 uM after 72 hrs by WST-1 assay. Format: functional, cell-based.
Assay [3] has as its system HL-60. Kind of assay: Antiproliferative activity against human HL60 cells by WST-1 assay. Format: functional, cell-based. Conditions: TDE = time-dependent effect.
The subject of assay [4] is PC-3. The assay can be described thus: Antiproliferative activity against human PC3 cells assessed as reduction of cell viability after 72 hrs by WST-1 assay relative to control. Type of assay: functional. Set-up: concentration or dose not given beside the values.
Assay [5] deals with HL-60. Kind of assay: Antiproliferative activity against human HL60 cells at 400 uM by WST-1 assay. Format: functional, cell-based.

The source made the active and inactive calls. The rule behind the calls is not given here.

As to `CC(C)=CCC/C(C)=C/COP(=O)(O)OCC(COC=O)OC=O` (configuration not stated), the result in the assay with PC-3 [1] was Active.

As for `CC(C)=CCC/C(C)=C\COP(=O)(O)OCC(COC=O)OC=O` (configuration not stated), the result in the assay with PC-3 [1] was Active.

`CC(C)=CCC/C(C)=C/CO` [GERANIOL]: the result with PC-3 [2] and in the assay with HL-60 [5] was inactive. Besides, the figures for the Activity result in the assay with HL-60 [3] and in the assay on PC-3 [4] were “tde” and 10%, respectively.

In the case of `CC1(C)C2CC=C(CO)C1C2` (configuration not stated) [MYRTENOL], the result in the assay on PC-3 [2] and in the assay on HL-60 [5] was inactive. Also, the Activity result with HL-60 [3] was “tde”; in the assay on PC-3 [4], 10%.

In the case of `CC(C)=CCC/C(C)=C\CO` [NEROL], the outcome with PC-3 [2] and with HL-60 [5] was inactive. Moreover, the Activity result in the assay on HL-60 [3] is “tde”; in the assay on PC-3 [4], 10%.

On to `C=C(C)[C@@H]1CC=C(CO)CC1` [PERILLYL ALCOHOL], for which the outcome in the assay on PC-3 [2] and in the assay with HL-60 [5] was inactive. Besides, the Activity result was “tde” in the assay with HL-60 [3] and 10% in the assay with PC-3 [4].

For `CC1(C)C2CC=C(COP(=O)(O)OCC(COC=O)OC=O)C1C2` (configuration not stated) [PHOSPHATIDYL MYRTENOL], in the assay with PC-3 [1], the result was Active. Besides, the Activity in the assay on PC-3 [4] was 10%.

`C=C(C)C1CC=C(COP(=O)(O)OCC(COC=O)OC=O)CC1` (configuration not stated) [PHOSPHATIDYL PERILLYL ALCOHOL]: the outcome in the assay on PC-3 [1] was Active. Besides, in the assay on PC-3 [4], the Activity stood at 10%.
